Measurements taken from US12691127B2, “Use of glucocorticoid receptor antagonists in combination with glucocorticoids to treat adrenal insufficiency” (Corcept Therapeutics, Inc., priority 2015, dated 2026).

Assays:
HPA axis = assay: Case report: recovery of the HPA axis (ACTH, cortisol, DHEA levels) in a patient with secondary adrenal insufficiency; type: in vivo, human
Source text: The patient is a person who developed depression for which they were placed on various psychotropic medications. They developed progressive malaise, 25 pound weight gain, muscle weakness, easing bruising, hypertension and foot stress fracture. They underwent screening DEXA bone density scan because of their personal history of fracture and a family history of advanced osteoporosis and genetically confirmed hypophosphatasia in their parent. The DEXA bone density scan disclosed a T-score of −3.4 at the lumbar spine and −3.1 at the hip. […] Further testing for secondary causes of osteoporosis included 24-hour urinary free cortisol which was markedly elevated at 499 mcg/day (range 10-80 mcg/day). Plasma ACTH level was undetectable. […], they underwent uncomplicated right laparoscopic adrenalactomy and histopathology confirmed a 3.7 cm adrenal cortical adenoma. The patient underwent a unilateral procedure, leaving one adrenal gland intact. Post-operatively the patient was placed on hydrocortisone replacement, initially at a dose of 40 mg/day given in divided doses and gradually tapered to 30 mg/day over the following several months. One year after their adrenalectomy, their hydrocortisone had been further tapered to 15 mg/day, which remained their maintenance dose. During the ensuing 6 years after their adrenalectomy, the patient generally felt unwell with symptoms of episodic nausea, headaches, lightheadedness, mood swings and generalized weakness. Quarterly measurement of serum cortisol and plasma ACTH levels (performed after holding hydrocortisone for 18 hours) consistently yielded undetectable values for both parameters. During this 6 year period, they had one pregnancy, occurring 3 years after adrenalectomy and progressing to full-term delivery of a healthy child. They had two other hospitalizations (separated by 4 years) for near-syncope, malaise, nausea and vomiting (but without hypoglycemia or hypotension). Both episodes were treated with 48-hours of intravenous stress-doses of glucocorticoids and saline, followed by improvement of their symptoms and subsequent tapering of glucocorticoids to a replacement dose of hydrocortisone 15 mg/day. The failure of the HPA axis to recover six years after adrenalectomy (despite physiological steroid dosing) prompted magnetic resonance imaging of the sella to rule out structural abnormalities of the hypothalamus, infundibulum and pituitary. This MRI was unremarkable. At that time, after a balanced discussion of risk and benefit, mifepristone 150 mg every other day was initiated and the dose of hydrocortisone 15 mg/day was continued. Over the ensuing five months, the dose of mifepristone was gradually escalated to 300 mg every other day, then 300 mg daily and finally maintained at 600 mg daily. […] The dose of hydrocortisone was lowered and ultimately stopped 8 months after initiation of mifepristone. […] The pruritis was tolerable and managed with over the counter anti-histamines. At no point during treatment with mifepristone did the patient develop signs or symptoms of adrenal insufficiency. Their menses returned 3 weeks after discontinuation of mifepristone. [table] […] Recovery of the patient's HPA axis was achieved. The patient's ACTH and cortisol levels increased in response to the drug treatment.

[1] = Case report: tolerability and side effects of mifepristone in the patient; type: in vivo, human
Experimental: The failure of the HPA axis to recover six years after adrenalectomy (despite physiological steroid dosing) prompted magnetic resonance imaging of the sella to rule out structural abnormalities of the hypothalamus, infundibulum and pituitary. This MRI was unremarkable. At that time, after a balanced discussion of risk and benefit, mifepristone 150 mg every other day was initiated and the dose of hydrocortisone 15 mg/day was continued. Over the ensuing five months, the dose of mifepristone was gradually escalated to 300 mg every other day, then 300 mg daily and finally maintained at 600 mg daily. […] The dose of hydrocortisone was lowered and ultimately stopped 8 months after initiation of mifepristone. […] The pruritis was tolerable and managed with over the counter anti-histamines. At no point during treatment with mifepristone did the patient develop signs or symptoms of adrenal insufficiency. Their menses returned 3 weeks after discontinuation of mifepristone.

[2] = 6 years after adrenalectomy on hydrocortisone replacement alone (15 mg/day), after holding hydrocortisone for 18 hours
[3] = Month 0, Mife dose 0, HC dose 15 mg (before mifepristone)
[4] = patient, mifepristone up to 600 mg daily
[5] = Month 1, Mife 150 mg TIW, HC 15 mg
[6] = Month 3, Mife 300 mg TIW, HC 15 mg
[7] = Month 4, Mife 300 mg daily, HC 15 mg
[8] = Month 5, Mife 600 mg daily, HC 15 mg
[9] = Month 6, Mife 600 mg daily, HC 10 mg
[10] = Month 10, Mife 0, HC 0 (after completion of treatment)
[11] = Month 11, Mife 0, HC 0 (after completion of treatment)

For `C[C@]12CCC(=O)C=C1CC[C@@H]1[C@@H]2[C@@H](O)C[C@@]2(C)[C@H]1CC[C@]2(O)C(=O)CO` [hydrocortisone], the “plasma ACTH level, quarterly measurement” value (HPA axis; [2]) was “undetectable”, the “serum cortisol level, quarterly measurement” value (HPA axis; [2]) was “undetectable” and the ACTH (HPA axis; [3]) was 5 pg/mL. It also gave a Cortisol (HPA axis; [3]) of less than 1 µg/dL and a DHEA (HPA axis; [3]) of less than 0.05 ng/mL.
For `CC#C[C@]1(O)CC[C@H]2[C@@H]3CCC4=CC(=O)CCC4=C3[C@@H](c3ccc(N(C)C)cc3)C[C@@]21C` [mifepristone, 17-β-hydrox-11-β-(4-dimethyl-aminophenyl)17-α-(1-propynyl)estra-4,9-dien-3-one], the “signs or symptoms of adrenal insufficiency during treatment” value ([1]; during treatment with mifepristone) was “At no point”, the “time to return of menses after discontinuation of mifepristone” value ([1]; human, in vivo) was 3 weeks and the side effects [1, 4] was “amenorrhea and pruritis”. For the same compound, the tolerability [1, 4] was “tolerated mifepristone remarkably well”, the ACTH (HPA axis; [5]) was 15 pg/mL and the Cortisol (HPA axis; [5]) was less than 1 µg/dL. The DHEA (HPA axis; [5]) was less than 0.05 ng/mL, the ACTH (HPA axis; [6]) was 18 pg/mL and the Cortisol (HPA axis; [6]) was less than 1 µg/dL. It also gave a DHEA (HPA axis; [6]) of less than 0.05 ng/mL, an ACTH (HPA axis; [7]) of 60 pg/mL and a Cortisol (HPA axis; [7]) of 3.6 µg/dL. The DHEA (HPA axis; [7]) was less than 0.05 ng/mL, the ACTH (HPA axis; [8]) was 78 pg/mL and the Cortisol (HPA axis; [8]) was 4.6 µg/dL. It also gave a DHEA (HPA axis; [8]) of less than 0.05 ng/mL, an ACTH (HPA axis; [9]) of 173 pg/mL and a Cortisol (HPA axis; [9]) of 10.5 µg/dL. It also gave a DHEA (HPA axis; [9]) of less than 0.05 ng/mL, an ACTH (HPA axis; Month 8, Mife 300 mg TIW, HC 0) of 126 pg/mL and a Cortisol (HPA axis; Month 8, Mife 300 mg TIW, HC 0) of 13.6 µg/dL. For the same compound, the DHEA (HPA axis; Month 8, Mife 300 mg TIW, HC 0) was less than 0.05 ng/mL, the ACTH (HPA axis; [10]) was 26 pg/mL and the Cortisol (HPA axis; [10]) was 13.5 µg/dL. The DHEA (HPA axis; [10]) was less than 0.05 ng/mL, the ACTH (HPA axis; [11]) was 45 pg/mL and the Cortisol (HPA axis; [11]) was 15.3 µg/dL. The DHEA (HPA axis; [11]) was 0.053 ng/mL, the “levels of ACTH and cortisol after completion of the treatment” value (HPA axis; after completion of hydrocortisone and mifepristone treatment) was “Normal levels of ACTH and cortisol were maintained” and the “treatment outcome of secondary adrenal insufficiency” value (HPA axis; co-administration of hydrocortisone and mifepristone) was “successfully treated”. The “recovery of the HPA axis” value (HPA axis; mifepristone escalated 150 mg every other day to 600 mg daily, with hydrocortisone 15 mg/day) was “rapid recovery of the HPA axis was noted” and the “time to rise in ACTH into the supra-normal range after starting mifepristone” value (HPA axis; with hydrocortisone 15 mg/day) was 4 months.
